How the values were obtained:
HCT116 cancer cells = assay: pH-dependent cellular uptake (flow cytometry, fluorescence imaging); type: cell-based, human; details: HCT116, pH 6.8 vs pH 7.4
Experimental: HCT116 cells were exposed to PMNs, InS-NPs and Ce6 at different pHs to verify their cellular uptake respectively. The cells were incubated for 2 h, washed, harvested, and re-suspended with DPBS. In vitro cellular uptake was quantified using a flow cytometer (Beckman, San Jose, Calif., USA). For each sample 10,000 cells (gated events) were counted, and free Ce6 fluorescence was detected with logarithmic settings (FL4; λem=670 nm). Cells were counted as positive if their fluorescence (FL4) was higher than that of cells from an untreated cell suspension. Each experiment was analyzed statistically using the CXP Analysis Program.
The tumor cellular uptake of PMNs was monitored at different pH conditions (pH 7.4 and 6.8) using a KODAK In vivo Image Station (Image Station 4000 MM; Kodak, New Haven, Conn., USA) and a flow cytometer (Beckman, San Jose, Calif., USA). HCT116 cells (1×10^5 cells/mL) were incubated with each sample for 2 h in RPMI-1640 medium (pH 7.4 or 6.8, with 1% penicillin-streptomycin) at 37° C. and then analyzed. To ameliorate photobleaching during microscope observation, a drop of anti-fade mounting solution (5% N-propyl gallate, 47.5% glycerol, and 47.5% Tris-HCl, pH 8.4) was added to the cells.

[1] = test system: heterogeneous CT26 tumors; assay: In vivo PDT in heterogeneous drug-resistant CT26 tumors; set-up: species or system BALB/c nude mice; details: heterogeneous CT26 tumors after PDT
Experimental: For histology analysis, tumor tissues from control and treated mice were fixed in 10% neutral buffered formalin and frozen sectioned into 5 micron thick slices, stained with hematoxylin & eosin (H&E) and terminal deoxynucleotidyl transferase dUTP nick-end labeling (TUNEL), and were examined by a digital microscope (Leica QWin) and a confocal laser scanning microscope (LSM 510 Meta; Zeiss, Germany).
For in vitro PDT, HCT116 cells (5×10^4/well) were incubated with the materials described above. Photosensitization experiments were then performed by irradiating the cells with a 670-nm laser source (Institute of Electronics) for 2 min. The power at the level of the cells was fixed at 5 mW/cm^2. Cell viability was assessed using the MTT assay. Absorbance intensity was measured at 595 nm using a microplate reader (Bio-Tek, VT, USA). A parallel set of control cells was also used in which cells incubated with the respective materials were not exposed to laser irradiation. […] The tumor size was measured 3 times a week after the first PDT treatment by using a Vernier caliper, and tumor volumes were calculated from width (a) and length (b) measurements (V=a^2×b/2, where a≦b). All mice were killed when the tumor measured 1,000 mm^3, at the first sign of suffering, or between 15 and 21 day post-transplantation.

chlorin E6 [Ce6] was tested, and the “cellular uptake, pH dependence” value (HCT116 cancer cells) was “not affected by changes in pH” and the “damage to tumor tissue cells, microvasculature and fibroblasts (H&E, TUNEL)” value [1] was “no obvious damage”.
